US9423396B2, “Bodipy structure fluorescence probes for diverse biological applications” (National University of Singapore, priority 2011, dated 2016)

Assay: Spectroscopic measurements (absorption, emission, quantum yield, extinction coefficient)
Assay type: physicochemical
[1] = absorption maximum, BDNCA library
[2] = difference of emission and absorption maxima
[3] = extinction coefficient, BDNCA library; in M-1 cm-1 (unit assumed)
[4] = fluorescence emission maximum, BDNCA library
[5] = BDNCA library, difference emission minus absorption
[6] = BDNCA library, extinction coefficient; in M-1 cm-1 (unit assumed)
[7] = BDNCA library, fluorescence emission

Structure (SMILES)	Abs [1] [nm]	Flu-Abs [2]	ε [3]	Flu [4]	Qunt. Yield (quantum yield, BDNCA library)	Qunt. Yield (BDNCA library)	Abs (BDNCA library, absorption) [nm]	Flu-Abs [5]	ε [6]	Flu [7]
CC1=CC(/C=C/c2ccc(C)cc2C)=[N+]2C1=C(c1ccc(NC(=O)CCl)cc1)c1cccn1[B-]2(F)F [BDNCA-370]	507	78	34,050	585	0.08					
COc1c(Br)cc(Br)cc1/C=C/C1=[N+]2C(=C(c3ccc(NC(=O)CCl)cc3)c3cccn3[B-]2(F)F)C(C)=C1 [BDNCA-241]						0.09	558	20	48,879	578
COc1ccc(/C=C/C2=[N+]3C(=C(c4ccc(NC(=O)CCl)cc4)c4cccn4[B-]3(F)F)C(C)=C2)cc1C [BDNCA-335]	569	33	41,739	602	0.08					
COc1cc(/C=C/C2=[N+]3C(=C(c4ccc(NC(=O)CCl)cc4)c4cccn4[B-]3(F)F)C(C)=C2)cc(I)c1OC [BDNCA-242]						0.14	561	25	70,847	586
CCOc1cccc(/C=C/C2=[N+]3C(=C(c4ccc(NC(=O)CCl)cc4)c4cccn4[B-]3(F)F)C(C)=C2)c1OCC [BDNCA-317]	557	22	45,858	579	0.08					
Cc1cc(/C=C/c2ccc(OCc3ccc(F)cc3)cc2)n2c1C(c1ccc(NC(=O)CCl)cc1)=C1C=CC=[N+]1[B-]2(F)F [BDNCA-378]	566	31	92,540	597	0.16					
CC1=CC(/C=C/c2ccc(C(C)C)cc2)=[N+]2C1=C(c1ccc(NC(=O)CCl)cc1)c1cccn1[B-]2(F)F [BDNCA-19]						0.13	558	22	61,236	580
COc1cc(/C=C/C2=[N+]3C(=C(c4ccc(NC(=O)CCl)cc4)c4cccn4[B-]3(F)F)C(C)=C2)ccc1OCCBr [BDNCA-268]						0.12	569	40	54,371	609
CCOc1cc(/C=C/C2=[N+]3C(=C(c4ccc(NC(=O)CCl)cc4)c4cccn4[B-]3(F)F)C(C)=C2)ccc1O [BDNCA-397]	573	40	38,444	613	0.01					
CC1=CC(/C=C/c2ccc(C)o2)=[N+]2C1=C(c1ccc(NC(=O)CCl)cc1)c1cccn1[B-]2(F)F [BDNCA-135]						0.07	577	41	37,346	618
Cc1cc(/C=C/c2ccc(F)c(Oc3ccccc3)c2)n2c1C(c1ccc(NC(=O)CCl)cc1)=C1C=CC=[N+]1[B-]2(F)F [BDNCA-311]	555	20	57,117	575	0.09					
CC1=CC(/C=C/c2ncc[nH]2)=[N+]2C1=C(c1ccc(NC(=O)CCl)cc1)c1cccn1[B-]2(F)F [BDNCA-353]	570	44	15,652	614	0.01					
COc1cc(Br)cc(/C=C/C2=[N+]3C(=C(c4ccc(NC(=O)CCl)cc4)c4cccn4[B-]3(F)F)C(C)=C2)c1OC [BDNCA-228]						0.13	558	19	63,707	577
COc1ccc(/C=C/c2cc(C)c3n2[B-](F)(F)[N+]2=CC=CC2=C3c2ccc(NC(=O)CCl)cc2)c2ccccc12 [BDNCA-32]						0.06	583	66	27,735	649
CC1=CC(/C=C/c2ccc(/C=C/c3ccccc3)cc2)=[N+]2C1=C(c1ccc(NC(=O)CCl)cc1)c1cccn1[B-]2(F)F [BDNCA-69]						0.09	577	33	40,641	610
CCCCOc1ccc(/C=C/C2=[N+]3C(=C(c4ccc(NC(=O)CCl)cc4)c4cccn4[B-]3(F)F)C(C)=C2)cc1 [BDNCA-46]						0.10	566	32	42,563	598
CC1=CC(/C=C/c2ccc(-c3cncnc3)cc2)=[N+]2C1=C(c1ccc(NC(=O)CCl)cc1)c1cccn1[B-]2(F)F [BDNCA-199]						0.15	563	20	59,314	583
CC1=CC(/C=C/c2c[nH]c3ccccc23)=[N+]2C1=C(c1ccc(NC(=O)CCl)cc1)c1cccn1[B-]2(F)F [BDNCA-375]	591	63	21,968	654	0.02					
COc1ccc(/C=C/c2cc(C)c3n2[B-](F)(F)[N+]2=CC=CC2=C3c2ccc(NC(=O)CCl)cc2)c(O)c1 [BDNCA-192]						0.03	577	53	21,693	630

Structure (SMILES)	Abs [1] [nm]	Flu-Abs [2]	ε [3]	Flu [4]	Qunt. Yield (quantum yield, BDNCA library)	Qunt. Yield (BDNCA library)	Abs (BDNCA library, absorption) [nm]	Flu-Abs [5]	ε [6]	Flu [7]
COc1cc2ccccc2c(/C=C/C2=[N+]3C(=C(c4ccc(NC(=O)CCl)cc4)c4cccn4[B-]3(F)F)C(C)=C2)c1OC [BDNCA-301]						0.24	567	36	85,950	603
CC1=CC(/C=C/c2c3ccccc3c(C)c3ccccc23)=[N+]2C1=C(c1ccc(NC(=O)CCl)cc1)c1cccn1[B-]2(F)F [BDNCA-340]	532	17	36,247	549	0.04					
CC1=CC(/C=C/c2cccc(Oc3ccc(C(C)(C)C)cc3)c2)=[N+]2C1=C(c1ccc(NC(=O)CCl)cc1)c1cccn1[B-]2(F)F [BDNCA-435]	556	20	61,510	576	0.13					
COc1cc(/C=C/C2=[N+]3C(=C(c4ccc(NC(=O)CCl)cc4)c4cccn4[B-]3(F)F)C(C)=C2)cc(Cl)c1OC [BDNCA-294]						0.14	560	21	63,158	581
CC(=O)OCCN(CCOC(C)=O)c1ccc(/C=C/C2=[N+]3C(=C(c4ccc(NC(=O)CCl)cc4)c4cccn4[B-]3(F)F)C(C)=C2)cc1 [BDNCA-114]						weak	608		42,288	weak
CC1=CC(/C=C/c2csc3ccccc23)=[N+]2C1=C(c1ccc(NC(=O)CCl)cc1)c1cccn1[B-]2(F)F [BDNCA-37]						0.14	567	33	71,121	600
CC1=CC(/C=C/c2ccc(OCCCN(C)C)cc2)=[N+]2C1=C(c1ccc(NC(=O)CCl)cc1)c1cccn1[B-]2(F)F [BDNCA-163]						0.04	566	29	24,165	595
CC1=CC(/C=C/c2cc(Br)ccc2O)=[N+]2C1=C(c1ccc(NC(=O)CCl)cc1)c1cccn1[B-]2(F)F [BDNCA-73]						0.04	564	21	27,185	585
CC1=CC(/C=C/c2ccccc2I)=[N+]2C1=C(c1ccc(NC(=O)CCl)cc1)c1cccn1[B-]2(F)F [BDNCA-384]	555	23	60,686	578	0.11					
COc1cc(OC)c(/C=C/C2=[N+]3C(=C(c4ccc(NC(=O)CCl)cc4)c4cccn4[B-]3(F)F)C(C)=C2)c(OC)c1 [BDNCA-82]						0.04	582	50	18,398	632
CC1=CC(/C=C/c2ccc(OC(F)(F)F)cc2)=[N+]2C1=C(c1ccc(NC(=O)CCl)cc1)c1cccn1[B-]2(F)F [BDNCA-68]						0.05	553	20	27,735	573
CC1=CC(/C=C/c2c(Br)ccc3c2OCO3)=[N+]2C1=C(c1ccc(NC(=O)CCl)cc1)c1cccn1[B-]2(F)F [BDNCA-262]						0.07	561	21	68,924	582
COc1ccc(/C=C/C2=[N+]3C(=C(c4ccc(NC(=O)CCl)cc4)c4cccn4[B-]3(F)F)C(C)=C2)c(OC)c1C [BDNCA-347]	569	35	34,874	604	0.08					
COc1cc(C=CC=CC2=[N+]3C(=C(c4ccc(NC(=O)CCl)cc4)c4cccn4[B-]3(F)F)C(C)=C2)ccc1OC(C)=O [BDNCA-44]						weak	580		12,632	weak
CC1=CC(/C=C/c2ccoc2)=[N+]2C1=C(c1ccc(NC(=O)CCl)cc1)c1cccn1[B-]2(F)F [BDNCA-71]						0.05	550	20	43,661	570
COc1ccc(/C=C/C2=[N+]3C(=C(c4ccc(NC(=O)CCl)cc4)c4cccn4[B-]3(F)F)C(C)=C2)cc1Br [BDNCA-260]						0.19	564	27	86,499	591
CCOc1ccccc1/C=C/c1cc(C)c2n1[B-](F)(F)[N+]1=CC=CC1=C2c1ccc(NC(=O)CCl)cc1 [BDNCA-336]	562	23	63,982	585	0.12					
CC1=CC(/C=C/c2ccc(O)cc2)=[N+]2C1=C(c1ccc(NC(=O)CCl)cc1)c1cccn1[B-]2(F)F [BDNCA-153]						0.05	569	37	23,341	606
